The values that follow come from ChEMBL document CHEMBL4049385 (Bioorg Med Chem Lett, 2017).

Active and inactive are the calls of the source. The calls are words filed in the database; no cut-off is given here.

The target of series [1] is T1, Oxysterols receptor LXR-alpha (Homo sapiens) (UniProt Q13133).
T1 sequence (whole entry): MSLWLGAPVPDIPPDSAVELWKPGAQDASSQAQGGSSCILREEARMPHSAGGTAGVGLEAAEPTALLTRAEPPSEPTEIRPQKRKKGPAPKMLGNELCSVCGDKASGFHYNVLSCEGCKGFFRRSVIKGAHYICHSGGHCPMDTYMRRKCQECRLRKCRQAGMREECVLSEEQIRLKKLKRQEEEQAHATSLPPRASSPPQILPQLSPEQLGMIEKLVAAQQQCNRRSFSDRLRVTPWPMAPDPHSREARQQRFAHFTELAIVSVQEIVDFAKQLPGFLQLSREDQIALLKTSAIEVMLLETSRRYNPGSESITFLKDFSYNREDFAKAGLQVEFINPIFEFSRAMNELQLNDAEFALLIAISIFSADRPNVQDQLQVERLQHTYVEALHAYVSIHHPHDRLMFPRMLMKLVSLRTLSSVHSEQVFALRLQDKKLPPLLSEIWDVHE
Put plainly: Agonist activity at recombinant human GAL4-DBD-fused LXRalpha-LBD expressed in HEK293T cells at 10 to 20 uM in presence of RXR-antagonist HX531 measured after 12 to 14 hrs by dual-glo luciferase reporter gene assay. Particulars: HEK-293T. The format is cell-based. Background: A reporter such as luciferase makes a cellular process visible.

The target of series [2] is T1, Oxysterols receptor LXR-alpha (Homo sapiens). Kind of series: Partial agonist activity at recombinant human GAL4-DBD-fused LXRalpha-LBD expressed in HEK293T cells at 10 uM measured after 12 to 14 hrs by dual-glo luciferase reporter gene assay relative to T0901317. Format: cell-based. As to conditions: HEK-293T.
The subject of series [3] is HEK-293T. Kind of series: Effect on recombinant firefly luciferase activity expressed in HEK293T cells at 10 uM after 12 to 14 hrs by luminescence assay. The format is ADME, cell-based. As to conditions: human.
Series [4] has as its target T2, Oxysterols receptor LXR-beta (Homo sapiens, UniProt P55055).
T2 sequence (P55055 whole entry): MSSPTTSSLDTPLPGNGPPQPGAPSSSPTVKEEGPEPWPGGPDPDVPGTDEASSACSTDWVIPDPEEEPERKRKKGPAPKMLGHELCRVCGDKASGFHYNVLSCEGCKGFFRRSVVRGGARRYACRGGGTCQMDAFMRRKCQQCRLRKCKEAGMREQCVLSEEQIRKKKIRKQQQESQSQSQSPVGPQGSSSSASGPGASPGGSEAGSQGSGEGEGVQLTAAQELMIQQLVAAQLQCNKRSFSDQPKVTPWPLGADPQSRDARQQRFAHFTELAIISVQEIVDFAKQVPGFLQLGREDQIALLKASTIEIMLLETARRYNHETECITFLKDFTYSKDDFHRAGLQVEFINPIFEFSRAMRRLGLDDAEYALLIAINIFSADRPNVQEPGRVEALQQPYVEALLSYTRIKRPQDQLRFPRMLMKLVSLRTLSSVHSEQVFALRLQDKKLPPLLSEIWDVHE
Kind of series: Partial agonist activity at recombinant human GAL4-DBD-fused LXRbeta-LBD expressed in HEK293T cells measured after 12 to 14 hrs by dual-glo luciferase reporter gene assay. Format: cell-based, HEK-293T.

For series [5], the target named is T1, Oxysterols receptor LXR-alpha (Homo sapiens). Kind of series: Partial antagonist activity at recombinant human GAL4-DBD-fused LXRalpha-LBD expressed in HEK293T cells assessed as inhibition of GW3965-induced receptor activation at 10 uM after 12 to 14 hrs by dual-glo luciferase reporter gene assay. Format: cell-based. As to conditions: HEK-293T.
The target is the same in series [6]. Kind of series: Partial antagonist activity at recombinant human GAL4-DBD-fused LXRalpha-LBD expressed in HEK293T cells assessed as inhibition of WAY252623-induced receptor activation at 10 uM after 12 to 14 hrs by dual-glo luciferase reporter gene assay. Format: cell-based. Particulars: HEK-293T.
The target is the same in series [7]. Kind of series: Agonist activity at recombinant human GAL4-DBD-fused LXRalpha-LBD expressed in HEK293T cells at 10 uM in presence of LXR-agonist 22(R)-hydroxycholesterol measured after 12 to 14 hrs by dual-glo luciferase reporter gene assay. The format is cell-based. Particulars: HEK-293T.
Series [8] can be described thus: Cmax in chronic hand eczema patient at 30 mg, po administered once daily for 24 weeks. The format is ADME, organism-based. The arrangement: dose 30 mg, route oral. As to conditions: human, in vivo.
Series [9] concerns Homo sapiens. Kind of series: Toxicity in chronic hand eczema patient assessed as increase in serum cholesterol level at 30 mg, po administered once daily for 24 weeks relative to control. The format is organism-based. Particulars: in vivo, 4032 h.
Series [10] deals with Homo sapiens. Put plainly: Toxicity in chronic hand eczema patient assessed as increase in triglyceride level at 30 mg, po administered once daily for 24 weeks relative to control. The format is organism-based. Particulars: in vivo, 4032 h.
Series [11] concerns the target T3, Oxysterols receptor LXR-beta (Homo sapiens) (UniProt P55055).
T3 sequence (whole entry): T2 sequence (P55055 whole entry)
Kind of series: Partial agonist activity at recombinant human GAL4-DBD-fused LXRbeta-LBD expressed in HEK293T cells at 10 uM measured after 12 to 14 hrs by dual-glo luciferase reporter gene assay relative to T0901317. The format is cell-based. As to conditions: HEK-293T.

The target in series [12] is T1, Oxysterols receptor LXR-alpha (Homo sapiens). Kind of series: Agonist activity at recombinant human GAL4-DBD-fused LXRalpha-LBD expressed in HEK293T cells at 10 uM in presence of RXR-antagonist HX531 measured after 12 to 14 hrs by dual-glo luciferase reporter gene assay. The format is cell-based. As to conditions: HEK-293T.
Series [13] concerns the target T4, Oxysterols receptor LXR-alpha (Homo sapiens, UniProt Q13133).
T4 sequence (Q13133 whole entry): T1 sequence (whole entry)
Put plainly: Partial agonist activity at recombinant human GAL4-DBD-fused LXRalpha-LBD expressed in HEK293T cells measured after 12 to 14 hrs by dual-glo luciferase reporter gene assay. Format: cell-based, HEK-293T.

For series [14], the target named is T1, Oxysterols receptor LXR-alpha (Homo sapiens). Kind of series: Agonist activity at recombinant human GAL4-DBD-fused LXRalpha-LBD expressed in HEK293T cells at 1 uM in presence of LXR-agonist 22(R)-hydroxycholesterol measured after 12 to 14 hrs by dual-glo luciferase reporter gene assay. Particulars: HEK-293T. The format is cell-based.
Series [15] in a line: Cmax in patient with solid tumor at 300 mg/m2, po administered once daily. The format is ADME, organism-based. Also noted: route oral. As to conditions: human, in vivo.
In series [16] the test system is HEK-293T. Put plainly: Effect on recombinant firefly luciferase activity expressed in HEK293T cells at 1 uM after 12 to 14 hrs by luminescence assay. The format is ADME, cell-based. Particulars: human.
The target of series [17] is T1, Oxysterols receptor LXR-alpha (Homo sapiens). Put plainly: Partial antagonist activity at recombinant human GAL4-DBD-fused LXRalpha-LBD expressed in HEK293T cells assessed as inhibition of GW3965-induced receptor activation at 1 uM measured after 12 to 14 hrs by dual-glo luciferase reporter gene assay. Format: cell-based. Particulars: HEK-293T.
The target is the same in series [18]. Kind of series: Partial antagonist activity at recombinant human GAL4-DBD-fused LXRalpha-LBD expressed in HEK293T cells assessed as inhibition of WAY252623-induced receptor activation at 1 uM measured after 12 to 14 hrs by dual-glo luciferase reporter gene assay. The format is cell-based. Particulars: HEK-293T.

With `CC(C)CC[C@@H](O)[C@@H](C)[C@H]1CC[C@H]2[C@@H]3CC=C4C[C@@H](O)CC[C@]4(C)[C@H]3CC[C@]12C`, the outcome in [1] was Active.
One may read the EC50 as the midpoint of the concentration-response curve. Usually Cmax stands for the highest concentration seen after dosing. On to `CC1=C(/C=C/C(C)=C\C=C\C(C)=C\C(=O)O)C(C)(C)CCC1` [ALITRETINOIN], for which the results for the fold change (FC) in [2] and in series [11] were 1.39 and 1.68, respectively. The Activity entry in series [3] was “Non-Toxic”; in [9], 14%; in [10], 8%. Moreover, in [4], the EC50 stood at 1730 nM. Besides, the inhibition result in series [5] and in series [6] was “Active” in each case. Further, the outcome in series [7] and in series [12] was Active. In series [8], this compound came in with a Cmax of 810 nM.
Turning to `C=C(c1ccc(C(=O)O)cc1)c1cc2c(cc1C)C(C)(C)CCC2(C)C` [BEXAROTENE], the figures for the fold change (FC) in [2] and in series [11] were 1.82 and 2.23, respectively. Also, the EC50 in series [13] was 196 nM; in series [4], 434 nM. The outcome in series [14] was Active. The peak concentration (Cmax) in series [15] stood at 3390 nM. Moreover, in [16], the Activity entry is recorded as “Non-Toxic”. For the same compound, the inhibition entry in series [17] and in series [18] was “Active” throughout.
`Fc1ccc(-c2c3cccc(C(F)(F)F)c3nn2Cc2ccc(F)cc2Cl)cc1` [LXR-623]: the values for the EC50 in [13] and in series [4] were 1440 nM and 900 nM, respectively.
